For series [1], the target named is 3',5'-cyclic-AMP phosphodiesterase 4D (Homo sapiens, UniProt Q08499). Briefly: Inhibition of human PDE4D2 (86 to 413 residues) expressed in Escherichia coli BL21 codon-plus cells using [3H]cAMP as substrate incubated for 15 mins by liquid scintillation counting method.
Series [2] concerns the target cGMP-specific 3',5'-cyclic phosphodiesterase (Homo sapiens, UniProt O76074). Briefly: Inhibition of human PDE5A1 (535 to 860 residues) expressed in Escherichia coli BL21 codon-plus cells using [3H]cGMP as substrate incubated for 15 mins by liquid scintillation counting method.
For the next series, the species on record is Homo sapiens. Briefly: Selectivity index, ratio of IC50 for human PDE8A1 (480 to 820 residues) expressed in Escherichia coli BL21 codon-plus cells to IC50 for human PDE4D2 (86 to 413 residues) expressed in Escherichia coli BL21 codon-plus cells.
Series [3] has as its target T1, 3',5'-cyclic-AMP phosphodiesterase 4B (Homo sapiens, UniProt Q07343). Briefly: Partial inhibition of human PDE4B1 (1 to 736 residues) expressed in Escherichia coli BL21 codon-plus cells using [3H]cAMP as substrate incubated with compound at high concentrations for 15 mins by liquid scintillation counting method relative to control.
Series [4] has as its system Mus musculus. Briefly: Anti-VaD activity against UCCAO-induced spatial memory deficient C57BL/6J mouse model assessed as improvement in spatial learning and memory by measuring increase in residence time on the platform at 10 mg/kg, po administered for 21 days by Morris water maze test. It counts as functional, organism-based.
Another series concerns the target Cytochrome P450 2D6 (Homo sapiens, UniProt P10635). Briefly: Inhibition of human CYP2D6. It counts as ADME.
Series [5] in a line: Cmax in Sprague-Dawley rat at 5 mg/kg, po measured upto 24 hrs by LC-MS/MS analysis. Format: ADME, organism-based. Set-up: dose 5 mg/kg, route oral. The conditions noted are these: in vivo.
The test system of series [6] is Mus musculus. Briefly: Anti-VaD activity against UCCAO-induced spatial memory deficient C57BL/6J mouse model assessed as improvement in spatial learning and memory by measuring reduction in escape latency at 10 mg/kg, po administered for 21 days by Morris water maze test. It counts as functional, organism-based.
Another series addresses Cytochrome P450 2C9 (Homo sapiens, UniProt P11712). Briefly: Inhibition of human CYP2C9. It counts as ADME.
Series [7] can be described thus: AUC(0 to t) in Sprague-Dawley rat at 5 mg/kg, po measured upto 24 hrs by LC-MS/MS analysis. It counts as ADME, organism-based. Set-up: dose 5 mg/kg, time < 24 hr, route oral. Particulars: in vivo.
A short description of series [8]: Stability in rat liver microsomes assessed as half life at 0.5 uM. It counts as ADME, Microsome.
Series [9] deals with T1, 3',5'-cyclic-AMP phosphodiesterase 4B. Briefly: Inhibition of human PDE4B1 (1 to 736 residues) expressed in Escherichia coli BL21 codon-plus cells using [3H]cAMP as substrate incubated for 15 mins by liquid scintillation counting method.
A short description of series [10]: Half life in Sprague-Dawley rat at 5 mg/kg, po measured upto 24 hrs by LC-MS/MS analysis. It counts as ADME, organism-based. The conditions noted are these: in vivo.
Series [11] deals with T1, 3',5'-cyclic-AMP phosphodiesterase 4B. Briefly: Inhibition of human PDE4B2 (152 to 487 residues) expressed in Escherichia coli BL21 codon-plus cells using [3H]cAMP as substrate incubated for 15 mins by liquid scintillation counting method.
The subject of series [12] is Mus musculus. Briefly: Anti-VaD activity against UCCAO-induced spatial memory deficient C57BL/6J mouse model assessed as improvement in spatial learning and memory by measuring decrease in error time at 10 mg/kg, po administered for 21 days by passive avoidance test. It counts as functional, organism-based.
Series [13] addresses Dual specificity calcium/calmodulin-dependent 3',5'-cyclic nucleotide phosphodiesterase 1B (Homo sapiens, UniProt Q01064). Briefly: Inhibition of human PDE1B (10 to 487 residues) expressed in Escherichia coli BL21 codon-plus cells using [3H]cAMP as substrate incubated for 15 mins by liquid scintillation counting method.

Activity calls are given as the source filed them. No cut-off for these calls is given here.

One may read the IC50 as the concentration at which inhibition is half-maximal. Broadly, the inhibition is the relative decrease from the control value, in per cent. What is called Cmax is the maximum level reached in the sampled fluid or tissue. A word on the AUC(0-t): it is the area under the concentration-time curve up to a stated or last time point. A higher AUC(0-t) goes with more exposure. By half-life is commonly meant the time in which the quantity being followed falls by half.

T1 sequence (Q07343 whole entry, the tested form may be a part): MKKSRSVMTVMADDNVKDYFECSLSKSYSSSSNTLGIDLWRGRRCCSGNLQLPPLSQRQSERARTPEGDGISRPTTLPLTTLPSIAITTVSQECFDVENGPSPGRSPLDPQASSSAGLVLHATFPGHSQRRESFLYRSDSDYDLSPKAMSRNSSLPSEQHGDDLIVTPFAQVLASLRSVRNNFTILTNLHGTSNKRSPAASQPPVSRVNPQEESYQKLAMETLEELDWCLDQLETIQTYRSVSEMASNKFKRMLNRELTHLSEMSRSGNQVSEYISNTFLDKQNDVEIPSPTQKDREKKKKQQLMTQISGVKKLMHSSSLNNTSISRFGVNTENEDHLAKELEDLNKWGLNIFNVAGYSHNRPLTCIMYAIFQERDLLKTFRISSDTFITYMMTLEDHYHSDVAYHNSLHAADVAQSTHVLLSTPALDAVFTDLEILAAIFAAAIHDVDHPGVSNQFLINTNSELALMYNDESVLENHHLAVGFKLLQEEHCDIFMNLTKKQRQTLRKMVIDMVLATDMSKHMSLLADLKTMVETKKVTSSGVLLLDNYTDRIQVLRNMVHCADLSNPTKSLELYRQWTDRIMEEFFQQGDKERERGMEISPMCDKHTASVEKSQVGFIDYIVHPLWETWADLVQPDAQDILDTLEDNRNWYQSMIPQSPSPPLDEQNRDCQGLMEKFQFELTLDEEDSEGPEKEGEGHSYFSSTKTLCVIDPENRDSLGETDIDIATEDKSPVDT
Chain of Dual specificity calcium/calmodulin-dependent 3',5'-cyclic nucleotide phosphodiesterase 1B (Q01064 whole entry, the tested form may be a part): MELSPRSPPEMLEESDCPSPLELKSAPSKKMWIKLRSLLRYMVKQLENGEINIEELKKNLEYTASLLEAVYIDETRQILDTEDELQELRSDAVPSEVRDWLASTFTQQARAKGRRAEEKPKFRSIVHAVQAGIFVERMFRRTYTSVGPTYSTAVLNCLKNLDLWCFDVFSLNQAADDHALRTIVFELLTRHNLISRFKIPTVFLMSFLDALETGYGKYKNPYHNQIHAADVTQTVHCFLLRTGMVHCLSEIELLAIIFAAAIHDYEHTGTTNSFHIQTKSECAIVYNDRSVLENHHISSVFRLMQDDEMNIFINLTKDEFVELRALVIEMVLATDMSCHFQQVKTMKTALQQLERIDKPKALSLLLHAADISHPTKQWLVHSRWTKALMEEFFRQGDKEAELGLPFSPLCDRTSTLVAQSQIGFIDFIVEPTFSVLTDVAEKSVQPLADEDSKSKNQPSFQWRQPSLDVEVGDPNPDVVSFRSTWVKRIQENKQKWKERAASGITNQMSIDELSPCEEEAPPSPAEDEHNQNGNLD
Chain of 3',5'-cyclic-AMP phosphodiesterase 4D (Q08499 whole entry, the tested form may be a part): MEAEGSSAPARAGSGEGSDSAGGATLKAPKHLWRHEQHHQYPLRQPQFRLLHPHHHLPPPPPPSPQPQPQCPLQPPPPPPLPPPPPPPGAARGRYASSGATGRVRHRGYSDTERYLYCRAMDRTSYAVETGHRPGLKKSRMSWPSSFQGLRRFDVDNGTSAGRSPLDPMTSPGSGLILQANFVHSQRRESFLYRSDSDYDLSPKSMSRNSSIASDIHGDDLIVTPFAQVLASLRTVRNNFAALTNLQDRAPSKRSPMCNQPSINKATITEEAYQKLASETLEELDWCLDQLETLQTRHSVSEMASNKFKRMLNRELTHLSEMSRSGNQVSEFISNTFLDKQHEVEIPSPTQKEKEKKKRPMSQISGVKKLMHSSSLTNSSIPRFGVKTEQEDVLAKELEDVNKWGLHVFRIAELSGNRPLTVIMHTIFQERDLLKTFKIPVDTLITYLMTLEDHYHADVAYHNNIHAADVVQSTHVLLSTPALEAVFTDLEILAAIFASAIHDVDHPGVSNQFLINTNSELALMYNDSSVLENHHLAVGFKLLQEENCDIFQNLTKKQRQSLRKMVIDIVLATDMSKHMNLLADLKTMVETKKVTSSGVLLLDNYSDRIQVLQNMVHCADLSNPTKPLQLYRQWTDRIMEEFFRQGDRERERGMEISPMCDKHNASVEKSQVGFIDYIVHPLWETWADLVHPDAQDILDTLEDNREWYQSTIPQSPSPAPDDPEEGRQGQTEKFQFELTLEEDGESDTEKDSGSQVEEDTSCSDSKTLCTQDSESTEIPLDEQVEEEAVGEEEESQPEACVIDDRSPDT
Chain of Cytochrome P450 2D6 (P10635 whole entry): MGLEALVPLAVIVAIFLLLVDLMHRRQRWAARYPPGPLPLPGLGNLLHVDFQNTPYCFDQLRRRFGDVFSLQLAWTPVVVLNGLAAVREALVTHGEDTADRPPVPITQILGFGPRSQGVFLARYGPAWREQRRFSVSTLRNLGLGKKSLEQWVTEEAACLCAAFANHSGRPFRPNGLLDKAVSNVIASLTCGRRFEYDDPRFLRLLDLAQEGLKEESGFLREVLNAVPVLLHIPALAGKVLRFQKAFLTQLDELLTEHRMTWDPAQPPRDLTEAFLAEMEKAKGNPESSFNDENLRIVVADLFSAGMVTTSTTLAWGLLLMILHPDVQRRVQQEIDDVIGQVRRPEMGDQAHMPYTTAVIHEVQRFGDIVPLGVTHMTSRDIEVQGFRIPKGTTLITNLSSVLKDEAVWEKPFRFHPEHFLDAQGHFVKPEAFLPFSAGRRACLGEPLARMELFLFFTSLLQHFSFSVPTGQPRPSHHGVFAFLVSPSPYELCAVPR
Chain of Cytochrome P450 2C9 (P11712 whole entry): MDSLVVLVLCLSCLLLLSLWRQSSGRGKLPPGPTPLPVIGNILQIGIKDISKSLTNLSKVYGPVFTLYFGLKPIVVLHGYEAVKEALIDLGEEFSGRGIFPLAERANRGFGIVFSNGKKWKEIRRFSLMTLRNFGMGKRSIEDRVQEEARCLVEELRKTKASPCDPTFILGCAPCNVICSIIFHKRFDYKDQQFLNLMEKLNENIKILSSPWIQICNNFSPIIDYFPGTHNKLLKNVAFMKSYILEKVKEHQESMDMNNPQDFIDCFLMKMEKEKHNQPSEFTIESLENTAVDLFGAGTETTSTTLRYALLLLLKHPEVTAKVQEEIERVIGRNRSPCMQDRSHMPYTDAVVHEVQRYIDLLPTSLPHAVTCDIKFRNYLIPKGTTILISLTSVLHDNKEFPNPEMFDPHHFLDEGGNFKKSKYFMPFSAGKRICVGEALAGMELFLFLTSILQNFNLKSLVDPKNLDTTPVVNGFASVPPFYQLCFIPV

Turning to `COc1c(OCCCCCCC(=O)O)cc2oc3cc4c(c(O)c3c(=O)c2c1CC=C(C)C)C=CC(C)(C)O4`, the IC50 was 17 nM in series [1]; 3390 nM in [2]; greater than 10000 nM against Cytochrome P450 2D6; greater than 10000 nM on Cytochrome P450 2C9; 8 nM in series [9]; 10 nM in series [11]. In series [13], the half-inhibitory concentration (IC50) is greater than 10000 nM. In addition, in the series listed under Homo sapiens, the Ratio IC50 was greater than 580. Besides, in series [3], the inhibition came out at 60%. The outcome with Mus musculus [4], with Mus musculus [6] and in the series with Mus musculus [12] was Active. In [5], this compound had a Cmax of 661 ng/mL. The compound also came in with an AUC(0-t) at 24 h in series [7] of 4740 ng·h/mL. Moreover, the half-life at 0.5 µM in series [8] is 2.8 h. In series [10], this compound gave a half-life of 3.48 h.

Values taken from ChEMBL document CHEMBL4402573, “Discovery and Optimization of α-Mangostin Derivatives as Novel PDE4 Inhibitors for the Treatment of Vascular Dementia” (J Med Chem, 2020).
